We go through 1 compound from ChEMBL document CHEMBL1153515 (Bioorg Med Chem, 2009).

Type in all cases: functional
For test [1], the target named is T1, 5-hydroxytryptamine receptor 3A (Mus musculus, UniProt P23979).
T1 sequence (P23979 whole entry): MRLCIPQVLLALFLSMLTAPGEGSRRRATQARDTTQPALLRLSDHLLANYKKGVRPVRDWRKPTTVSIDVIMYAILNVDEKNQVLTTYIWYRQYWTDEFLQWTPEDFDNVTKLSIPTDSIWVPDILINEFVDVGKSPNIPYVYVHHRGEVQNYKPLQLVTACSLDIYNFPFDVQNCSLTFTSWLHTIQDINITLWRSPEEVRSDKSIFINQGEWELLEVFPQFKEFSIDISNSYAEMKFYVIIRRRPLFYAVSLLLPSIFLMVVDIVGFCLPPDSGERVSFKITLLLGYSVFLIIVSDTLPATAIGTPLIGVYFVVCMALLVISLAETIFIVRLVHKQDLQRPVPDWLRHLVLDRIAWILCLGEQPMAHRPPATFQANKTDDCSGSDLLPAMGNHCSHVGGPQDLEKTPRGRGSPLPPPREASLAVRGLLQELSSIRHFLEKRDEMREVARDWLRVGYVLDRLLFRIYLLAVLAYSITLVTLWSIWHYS
In words: Agonist activity at wild type mouse 5HT3A receptor expressed in Xenopus oocyte by two-electrode voltage patch clamp method. A general note: Two-electrode voltage clamp is typically applied to oocytes expressing channels or transporters.

Test [2] has as its target 5-hydroxytryptamine receptor 3A (Mus musculus, UniProt P23979, Y142F). In words: Agonist activity at mouse 5HT3A Y143F receptor mutant expressed in Xenopus oocyte by two-electrode voltage patch method.
Test [3] has as its target 5-hydroxytryptamine receptor 3A (Mus musculus, UniProt P23979, I189V). In words: Agonist activity at mouse 5HT3A I190V receptor mutant expressed in Xenopus oocyte by two-electrode voltage patch method.
The target of test [4] is 5-hydroxytryptamine receptor 3A (Mus musculus, UniProt P23979, Q187A). In words: Agonist activity at mouse 5HT3A Q188A receptor mutant expressed in Xenopus oocyte by two-electrode voltage patch method.
Test [5] deals with 5-hydroxytryptamine receptor 3A (Mus musculus, UniProt P23979, I186A). In words: Agonist activity at mouse 5HT3A I187A receptor mutant expressed in Xenopus oocyte by two-electrode voltage patch method.
The target in test [6] is 5-hydroxytryptamine receptor 3A (Mus musculus, UniProt P23979, T185A). In words: Agonist activity at mouse 5HT3A T186A receptor mutant expressed in Xenopus oocyte by two-electrode voltage patch method.
The target of test [7] is 5-hydroxytryptamine receptor 3A (Mus musculus, UniProt P23979, H184Y). In words: Agonist activity at mouse 5HT3A H185Y receptor mutant expressed in Xenopus oocyte by two-electrode voltage patch method.
Test [8] addresses 5-hydroxytryptamine receptor 3A (Mus musculus, UniProt P23979, H184F). In words: Agonist activity at mouse 5HT3A H185F receptor mutant expressed in Xenopus oocyte by two-electrode voltage patch method.
The target in test [9] is 5-hydroxytryptamine receptor 3A (Mus musculus, UniProt P23979, L183V). In words: Agonist activity at mouse 5HT3A L184V receptor mutant expressed in Xenopus oocyte by two-electrode voltage patch method.
In test [10] the target is 5-hydroxytryptamine receptor 3A (Mus musculus, UniProt P23979, W182F). In words: Agonist activity at mouse 5HT3A W183F receptor mutant expressed in Xenopus oocyte by two-electrode voltage patch method.
Test [11] has as its target 5-hydroxytryptamine receptor 3A (Mus musculus, UniProt P23979, S181A). In words: Agonist activity at mouse 5HT3A S182A receptor mutant expressed in Xenopus oocyte by two-electrode voltage patch method.
For test [12], the target named is 5-hydroxytryptamine receptor 3A (Mus musculus, UniProt P23979, T180A). In words: Agonist activity at mouse 5HT3A T181A receptor mutant expressed in Xenopus oocyte by two-electrode voltage patch method.
Test [13] has as its target 5-hydroxytryptamine receptor 3A (Mus musculus, UniProt P23979, Y152A). In words: Agonist activity at mouse 5HT3A Y153A receptor mutant expressed in Xenopus oocyte by two-electrode voltage patch method.
For test [14], the target named is 5-hydroxytryptamine receptor 3A (Mus musculus, UniProt P23979, Y152F). In words: Agonist activity at mouse 5HT3A Y153F receptor mutant expressed in Xenopus oocyte by two-electrode voltage patch method.

A word on the EC50: it is the midpoint of the concentration-response curve. A high value points to a less potent agent.

5-hydroxytryptamine receptor 3A (Mus musculus, UniProt P23979, Y152A), sequence (P23979 24-489 Y153A limits assumed): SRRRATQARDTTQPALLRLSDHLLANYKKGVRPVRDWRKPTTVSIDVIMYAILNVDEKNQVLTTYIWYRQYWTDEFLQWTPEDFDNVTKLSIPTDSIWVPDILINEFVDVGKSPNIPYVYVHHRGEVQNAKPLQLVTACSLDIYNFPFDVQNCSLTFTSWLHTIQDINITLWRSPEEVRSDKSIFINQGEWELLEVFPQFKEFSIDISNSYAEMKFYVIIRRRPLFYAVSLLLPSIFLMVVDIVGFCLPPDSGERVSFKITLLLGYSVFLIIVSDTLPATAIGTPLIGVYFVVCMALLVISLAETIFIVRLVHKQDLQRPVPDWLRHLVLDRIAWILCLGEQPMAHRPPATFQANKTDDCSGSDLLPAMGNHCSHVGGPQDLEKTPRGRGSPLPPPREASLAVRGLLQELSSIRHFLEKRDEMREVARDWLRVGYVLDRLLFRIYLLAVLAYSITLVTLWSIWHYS
5-hydroxytryptamine receptor 3A (Mus musculus, UniProt P23979, T180A), sequence (P23979 24-489 T181A limits assumed): as the sequence (P23979 24-489 Y153A limits assumed) above, with A130Y, T158A counted along it
5-hydroxytryptamine receptor 3A (Mus musculus, UniProt P23979, H184F), sequence (P23979 24-489 H185F limits assumed): as the sequence (P23979 24-489 Y153A limits assumed) above, with A130Y, H162F counted along it
5-hydroxytryptamine receptor 3A (Mus musculus, UniProt P23979, S181A), sequence (P23979 24-489 S182A limits assumed): as the sequence (P23979 24-489 Y153A limits assumed) above, with A130Y, S159A counted along it
5-hydroxytryptamine receptor 3A (Mus musculus, UniProt P23979, Q187A), sequence (P23979 24-489 Q188A limits assumed): as the sequence (P23979 24-489 Y153A limits assumed) above, with A130Y, Q165A counted along it
5-hydroxytryptamine receptor 3A (Mus musculus, UniProt P23979, L183V), sequence (P23979 24-489 L184V limits assumed): as the sequence (P23979 24-489 Y153A limits assumed) above, with A130Y, L161V counted along it
5-hydroxytryptamine receptor 3A (Mus musculus, UniProt P23979, T185A), sequence (P23979 24-489 T186A limits assumed): as the sequence (P23979 24-489 Y153A limits assumed) above, with A130Y, T163A counted along it
5-hydroxytryptamine receptor 3A (Mus musculus, UniProt P23979, I186A), sequence (P23979 24-489 I209A limits assumed): as the sequence (P23979 24-489 Y153A limits assumed) above, with A130Y, I186A counted along it
5-hydroxytryptamine receptor 3A (Mus musculus, UniProt P23979, Y152F), sequence (P23979 24-489 Y153F limits assumed): as the sequence (P23979 24-489 Y153A limits assumed) above, with A130F counted along it
5-hydroxytryptamine receptor 3A (Mus musculus, UniProt P23979, Y142F), sequence (P23979 24-489 Y143F limits assumed): as the sequence (P23979 24-489 Y153A limits assumed) above, with Y120F, A130Y counted along it
5-hydroxytryptamine receptor 3A (Mus musculus, UniProt P23979, I189V), sequence (P23979 24-489 I190V limits assumed): as the sequence (P23979 24-489 Y153A limits assumed) above, with A130Y, I167V counted along it
5-hydroxytryptamine receptor 3A (Mus musculus, UniProt P23979, W182F), sequence (P23979 24-489 W183F limits assumed): as the sequence (P23979 24-489 Y153A limits assumed) above, with A130Y, W160F counted along it
5-hydroxytryptamine receptor 3A (Mus musculus, UniProt P23979, H184Y), sequence (P23979 24-489 H185Y limits assumed): as the sequence (P23979 24-489 Y153A limits assumed) above, with A130Y, H162Y counted along it

`N=C(N)NC(=N)Nc1cccc(Cl)c1`: the EC50 was 0.8 µM in test [1]; 5.3 µM in [2]; 2 µM in [3]; 2.3 µM in [4]; 52 µM in test [5]; 1.7 µM in test [6]. In addition, the concentration giving a half-maximal response (EC50) in test [7] amounted to 5.4 µM; in [8], 2.5 µM; in test [9], 5.1 µM; in test [10], 16 µM; in [11], 27 µM; in test [12], 2.2 µM. In addition, the results for the concentration for a half-maximal effect (EC50) in test [13] and in [14] were 7.6 µM and 2.2 µM, respectively.
